According to patent US20260053836A1, “CHRONIC WOUND HEALING COMPOSITION AND APPLICATION THEREOF” (priority 2019, published 2026):

Tests used:
Staphylococcus aureus = details: Guillermo et al., 1999; cited from earlier work
HaCaT cells = assay: Cell migration assay of HaCaT cells in high glucose culture; type: cell-based, human; details: high glucose (25 mM), 48 hours, control group taken as 1
Procedure: Human dermal fibroblasts (HDF cells) or human keratinocytes (HuCaT cells) were cultured in a humid incubator at 37° C. in an environment of 5% carbon dioxide and […] and placed in Dulbecco's modified Eagle's medium (DMEM) supplemented with glucose, 10% fetal bovine serum, 100 IU/mL penicillin, 100 μg/mL streptomycin, 2 mM sodium pyruvate and 1% nonessential amino acids (NEAA). The medium was changed every two days. For subculture, cells were harvested and re-cultured at a 1:10 dilution after exposure to 0.1% Trypsin-EDTA mixture. The cells used in the study ranged from 12 to 40 passages. 24 hours before drug treatment, cells were seeded and left for 24 hours. The control group was maintained in the medium and […]. Under this culture condition, cell growth and differentiation are not affected.
HaCaT cells were cultured at 1×10^5 with addition of 25 mM glucose in a 24-well culture dish for 48 hours, and the following drugs were added to observe the cell migration state: • Con: the control group; • BO 18.8 μM+A 16.0 μM; • BSG 14.2 μM+A 16.0 μM; • BO 18.8 μM+BSG 14.2 μM; • All: A 16.0 μM+BO 18.8 μM+BSG 14.2 μM.

In the case of `C[C@@H]1O[C@@H](O[C@@H]2[C@@H](O)[C@H](OCCc3ccc(O)c(O)c3)O[C@H](CO)[C@H]2OC(=O)/C=C/c2ccc(O)c(O)c2)[C@H](O)[C@H](O)[C@H]1O` [Acteosides, Acteoside], the antibacterial efficacy (Staphylococcus aureus) is given as “good antibacterial efficacy”.

For `CC1(C)C2CCC1(C)C(O)C2` (stereo not drawn) [BO, Borneal], the cell migration (HaCaT cells) was “no promoting effect”.

For `O=C(O)c1cc(O)c2c(c1)[O][Bi]([OH])[O]2` [BSG, Bismuth subgallate], the cell migration (HaCaT cells) was “no promoting effect”.
